Target: mouse TEAD4 (mTEAD4) (Mus musculus, UniProt Q62296)
Assay: X-ray co-crystal structure ([…] Å), ITC; also thermal shift assay and MST ([…])
Type: binding

Chain of mouse TEAD4 (mTEAD4) (Q62296 210-427): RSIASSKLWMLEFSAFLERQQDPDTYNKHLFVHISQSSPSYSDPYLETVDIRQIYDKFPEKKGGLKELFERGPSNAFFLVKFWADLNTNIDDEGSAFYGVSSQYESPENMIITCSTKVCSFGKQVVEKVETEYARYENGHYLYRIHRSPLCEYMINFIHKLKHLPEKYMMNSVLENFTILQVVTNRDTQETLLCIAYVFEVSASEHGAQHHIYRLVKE

Work on `O=C(O)C(c1ccccc1)n1cccc1` (stereo not shown) [compound 1, fragment 1] yielded a Kd of roughly 300 µM.
